Earlier results as cited in EP4046639A1, “PREVENTION OF PULMONARY VASCULAR LEAK IN COVID-19” (priority 2021, dated 2022).
Where two headings read alike, the source gives them in different places.

Tested on: Covid-19

For `C[C@@H]1C[C@H]2[C@@H]3CCC4=CC(=O)C=C[C@]4(C)[C@@]3(F)[C@@H](O)C[C@]2(C)[C@@]1(O)C(=O)CO` [Dexamethason], the Covid-19 mortality (hospitalized patients, reduced from 24) is listed as 20% and the Covid-19 mortality (patients in the intensive care unit (ICU), reduced from 40) is listed as 30%.
